Patent US20230382888A1, “HDAC INHIBITOR SOLID STATE FORMS” (Viracta Subsidiary, Inc., priority 2020, published 2023)
≈ marks a conversion by molar mass, not a printed value. Entries after “also recorded” stand apart in the source; their conditions may differ.

Legend:
[1] = type: physicochemical
Text: There was insufficient residue to characterize these further.

[2] = Static storage stability at elevated temperature/humidity (XRPD, HPLC); type: physicochemical; conditions: for HPLC purity after static storage: 1 week; for Solid form by XRPD after static storage: 7 days (1 week)
[3] = Gravimetric vapour sorption (GVS); type: physicochemical; conditions: for XRPD post-GVS (solid form): residue after GVS; for Hygroscopicity by GVS: 25° C.
Procedure: Sorption isotherms were obtained using a SMS DVS Intrinsic moisture sorption analyser, controlled by DVS Intrinsic Control software. The sample temperature was maintained at 25° C. by the instrument controls. The humidity was controlled by mixing streams of dry and wet nitrogen, with a total flow rate of 200 ml/min. The relative humidity was measured by a calibrated Rotronic probe (dynamic range of 1.0 — 100% RH), located near the sample. The weight change, (mass relaxation) of the sample as a function of % RH was constantly monitored by a microbalance (accuracy ±0.005 mg). Typically, 20-30 mg of sample was placed in a tared mesh stainless steel basket under ambient conditions. The sample was loaded and unloaded at 40% RH and 25° C. (typical room conditions). A moisture sorption isotherm was performed as outlined below (2 scans per complete cycle). The standard isotherm was performed at 25° C. at 10% RH intervals over a 0-90% RH range. Typically, a double cycle (4 scans) was carried out. Data analysis was carried out within Microsoft Excel using the DVS Analysis Suite. [table]

[4] = Thermodynamic aqueous solubility; type: physicochemical; conditions: for pH of saturated solution: water, after 24 hours equilibration at 25° C.
Procedure: Aqueous solubility was determined by suspending sufficient compound in 0.5 ml deionized water to give a maximum final concentration of 40 mg/ml of the parent free-form of the compound. The suspension was equilibrated at 25° C., on a Heidolph plate shaker set to 750 rpm for 24 hours. After equilibration, the appearance was noted and the pH of the saturated solution was measured. Samples forming suspensions were centrifuged for 4 min at 13,500 rpm. Samples were then filtered through a glass fiber C filter (particle retention 1.2 μm), before dilution with H2 O as appropriate. Quantitation was by HPLC (see Table 2 for parameters) with reference to a standard solution of approximately 0.15 mg/ml in DMSO. Different volumes of the standard, diluted and undiluted sample solutions were injected. The solubility was calculated using the peak areas determined by integration of the peak found at the same retention time as the principal peak in the standard injection. Analysis was performed on an Agilent HP1100/Infinity II 1260 series system equipped with a diode array detector and using OpenLAB software.

[5] = Intrinsic dissolution rate (IDR) in FaSSGF; type: physicochemical; conditions: Fasted State Simulated Gastric Fluid

## O=C(NO)c1cnc(N2C[C@@H]3[C@H](C2)[C@H]3NCc2ccc3cc(F)ccc3n2)nc1 [Mesylate Form 4, N-hydroxy 2-{6-[(6-fluoro-quinolin-2-ylmethyl)-amino]-3-aza-bicyclo[3.1.0]hex-3-yl}pyrimidine-5-carboxamide]
[1]
  Thermodynamic solubility in FaSSGF: 24000 µg/mL
[2]; 25° C./97% RH
  HPLC purity after static storage: 99.5%
  Solid form by XRPD after static storage: conversion to Mesylate Form 1; also recorded: converted to Mesylate Form 1
[2]; 40° C./75% RH
  HPLC purity after static storage: 99.4%
[3]; 40-90% RH
  Water uptake, first sorption cycle: 0.7%
[3]; at 40% RH
  Starting water content in GVS: 9.4%
[3]; down to 20% RH
  Gradual water loss, desorption cycle 1: 0.8%
[3]
  XRPD post-GVS (solid form): conversion to Mesylate Form 1; also recorded: Post-GVS: Converted to Mesylate Form 1 by XRPD

## O=C(NO)c1cnc(N2C[C@@H]3[C@H](C2)[C@H]3NCc2ccc3cc(F)ccc3n2)nc1 [Compound 1, N-hydroxy-2-{6-[(6-fluoro-quinolin-2-ylmethyl)-amino]-3-aza-bicyclo[3.1.0]hex-3-yl}pyrimidine-5-carboxamide]
[4]; deionized water, 25° C., 24 hours, maximum final concentration 40 mg/ml of parent free-form, listed as Free base
  Solubility in water: essentially insoluble in water

## O=C(NO)c1cnc(N2C[C@@H]3[C@H](C2)[C@H]3NCc2ccc3cc(F)ccc3n2)nc1 [Mesylate Form 2, N-hydroxy 2-{6-[(6-fluoro-quinolin-2-ylmethyl)-amino]-3-aza-bicyclo[3.1.0]hex-3-yl}pyrimidine-5-carboxamide]
[2]; 25° C./97% RH
  Solid form by XRPD after static storage: unchanged; also recorded: Mesylate Form 2
[2]; 25° C./97% RH, listed as Form 2
  Solid form by XRPD after static storage: stable after 1 week
[2]; 40° C./75% RH
  Solid form by XRPD after static storage: unchanged; also recorded: Mesylate Form 2
[2]; 40° C./75% RH, listed as Form 2
  Solid form by XRPD after static storage: stable after 1 week
[3]
  Hygroscopicity by GVS: slightly hygroscopic
  XRPD post-GVS (solid form): unchanged; also recorded: XRPD Post-GVS: Mesylate Form 2
[3]; listed as Form 2
  Hygroscopicity by GVS: slightly hygroscopic

## O=C(NO)c1cnc(N2C[C@@H]3[C@H](C2)[C@H]3NCc2ccc3cc(F)ccc3n2)nc1 [Free Base Form B, N-hydroxy 2-{6-[(6-fluoro-quinolin-2-ylmethyl)-amino]-3-aza-bicyclo[3.1.0]hex-3-yl}pyrimidine-5-carboxamide]
[5]
  IDR in FaSSGF: 1.8 mg/min/cm^2
[4]; deionized water, 25° C., 24 hours, maximum final concentration 40 mg/ml of parent free-form
  Solubility in water: 1 µg/mL (≈ 2.54 µM)
[4]
  pH of saturated solution: (pH = 7.4)

## O=C(NO)c1cnc(N2C[C@@H]3[C@H](C2)[C@H]3NCc2ccc3cc(F)ccc3n2)nc1 [Free Base Form A, N-hydroxy 2-{6-[(6-fluoro-quinolin-2-ylmethyl)-amino]-3-aza-bicyclo[3.1.0]hex-3-yl}pyrimidine-5-carboxamide]
[5]
  IDR in FaSSGF: 1.1 mg/min/cm^2
[4]; thermodynamic from solid, deionized water, 25° C., 24 hours, maximum final concentration 40 mg/ml of parent free-form
  solubility at 24 h: 1 µg/mL (≈ 2.54 µM)
[4]
  pH of saturated solution: (pH = 7.4)
